Activity calls are given as the source filed them. No cut-off for these calls is given here.
Tests used:
[1] = biological target: Mitogen-activated protein kinase kinase kinase kinase 4 (Homo sapiens) (UniProt O95819); assay: Inhibition of MAP4K4 (unknown origin)
[2] = biological target: Dual specificity protein kinase CLK4 (Homo sapiens) (UniProt Q9HAZ1); assay: Inhibition of CLK4 (unknown origin)
[3] = biological target: BDNF/NT-3 growth factors receptor (Homo sapiens) (UniProt Q16620); assay: Inhibition of TRKB (unknown origin)
[4] = biological target: T1, Interleukin-1 receptor-associated kinase 4 (Homo sapiens, UniProt Q9NWZ3); assay: Inhibition of N-terminal GST tagged human recombinant full-length IRAK4 expressed in Sf9 insect cells assessed as reduction in substrate phosphorylation using RP7030 peptide substrate and ATP incubated for 30 mins fluorescence polarization assay
T1 sequence (Q9NWZ3 whole entry): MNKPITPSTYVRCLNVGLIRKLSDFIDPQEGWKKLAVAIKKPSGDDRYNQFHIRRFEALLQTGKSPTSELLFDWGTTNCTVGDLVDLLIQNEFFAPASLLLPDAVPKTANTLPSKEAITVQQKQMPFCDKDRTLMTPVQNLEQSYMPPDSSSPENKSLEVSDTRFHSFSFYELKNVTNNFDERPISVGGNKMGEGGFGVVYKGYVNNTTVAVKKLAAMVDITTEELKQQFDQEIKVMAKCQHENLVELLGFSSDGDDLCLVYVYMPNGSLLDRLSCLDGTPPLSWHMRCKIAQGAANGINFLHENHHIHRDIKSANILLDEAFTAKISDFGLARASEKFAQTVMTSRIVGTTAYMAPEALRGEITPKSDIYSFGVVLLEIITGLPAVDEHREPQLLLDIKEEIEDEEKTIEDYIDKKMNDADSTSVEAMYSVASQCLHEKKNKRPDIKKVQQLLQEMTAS

[5] = biological target: NT-3 growth factor receptor (Homo sapiens) (UniProt Q16288); assay: Inhibition of TRKC (unknown origin)
[6] = biological target: Receptor-type tyrosine-protein kinase FLT3 (Homo sapiens) (UniProt P36888); assay: Inhibition of FLT3 (unknown origin)
[7] = biological target: High affinity nerve growth factor receptor (Homo sapiens) (UniProt P04629); assay: Inhibition of TRKA (unknown origin)
Sequence of High affinity nerve growth factor receptor (Homo sapiens) (P04629 33-796 limits assumed): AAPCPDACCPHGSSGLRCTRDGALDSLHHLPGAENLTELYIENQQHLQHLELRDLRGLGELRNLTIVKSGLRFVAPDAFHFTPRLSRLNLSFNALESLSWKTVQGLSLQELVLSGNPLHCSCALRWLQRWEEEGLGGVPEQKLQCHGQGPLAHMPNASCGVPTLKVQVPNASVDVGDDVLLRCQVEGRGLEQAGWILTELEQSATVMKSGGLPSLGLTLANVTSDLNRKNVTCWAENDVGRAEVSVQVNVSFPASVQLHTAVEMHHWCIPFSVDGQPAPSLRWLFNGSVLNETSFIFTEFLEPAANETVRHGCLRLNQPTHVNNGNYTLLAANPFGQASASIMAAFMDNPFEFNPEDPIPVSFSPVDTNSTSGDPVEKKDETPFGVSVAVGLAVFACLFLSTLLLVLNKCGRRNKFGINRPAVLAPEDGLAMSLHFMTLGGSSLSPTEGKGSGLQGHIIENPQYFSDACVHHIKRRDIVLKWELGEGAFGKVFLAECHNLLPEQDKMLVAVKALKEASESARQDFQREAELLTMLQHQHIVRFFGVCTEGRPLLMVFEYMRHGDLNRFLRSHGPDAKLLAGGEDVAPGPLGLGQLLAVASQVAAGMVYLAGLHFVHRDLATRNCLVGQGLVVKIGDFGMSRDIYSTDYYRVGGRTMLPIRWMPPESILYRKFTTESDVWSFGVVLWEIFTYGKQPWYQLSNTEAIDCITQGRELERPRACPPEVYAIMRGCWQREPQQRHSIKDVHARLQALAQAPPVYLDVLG

Sequence of Mitogen-activated protein kinase kinase kinase kinase 4 (Homo sapiens) (O95819 2-1239 limits assumed): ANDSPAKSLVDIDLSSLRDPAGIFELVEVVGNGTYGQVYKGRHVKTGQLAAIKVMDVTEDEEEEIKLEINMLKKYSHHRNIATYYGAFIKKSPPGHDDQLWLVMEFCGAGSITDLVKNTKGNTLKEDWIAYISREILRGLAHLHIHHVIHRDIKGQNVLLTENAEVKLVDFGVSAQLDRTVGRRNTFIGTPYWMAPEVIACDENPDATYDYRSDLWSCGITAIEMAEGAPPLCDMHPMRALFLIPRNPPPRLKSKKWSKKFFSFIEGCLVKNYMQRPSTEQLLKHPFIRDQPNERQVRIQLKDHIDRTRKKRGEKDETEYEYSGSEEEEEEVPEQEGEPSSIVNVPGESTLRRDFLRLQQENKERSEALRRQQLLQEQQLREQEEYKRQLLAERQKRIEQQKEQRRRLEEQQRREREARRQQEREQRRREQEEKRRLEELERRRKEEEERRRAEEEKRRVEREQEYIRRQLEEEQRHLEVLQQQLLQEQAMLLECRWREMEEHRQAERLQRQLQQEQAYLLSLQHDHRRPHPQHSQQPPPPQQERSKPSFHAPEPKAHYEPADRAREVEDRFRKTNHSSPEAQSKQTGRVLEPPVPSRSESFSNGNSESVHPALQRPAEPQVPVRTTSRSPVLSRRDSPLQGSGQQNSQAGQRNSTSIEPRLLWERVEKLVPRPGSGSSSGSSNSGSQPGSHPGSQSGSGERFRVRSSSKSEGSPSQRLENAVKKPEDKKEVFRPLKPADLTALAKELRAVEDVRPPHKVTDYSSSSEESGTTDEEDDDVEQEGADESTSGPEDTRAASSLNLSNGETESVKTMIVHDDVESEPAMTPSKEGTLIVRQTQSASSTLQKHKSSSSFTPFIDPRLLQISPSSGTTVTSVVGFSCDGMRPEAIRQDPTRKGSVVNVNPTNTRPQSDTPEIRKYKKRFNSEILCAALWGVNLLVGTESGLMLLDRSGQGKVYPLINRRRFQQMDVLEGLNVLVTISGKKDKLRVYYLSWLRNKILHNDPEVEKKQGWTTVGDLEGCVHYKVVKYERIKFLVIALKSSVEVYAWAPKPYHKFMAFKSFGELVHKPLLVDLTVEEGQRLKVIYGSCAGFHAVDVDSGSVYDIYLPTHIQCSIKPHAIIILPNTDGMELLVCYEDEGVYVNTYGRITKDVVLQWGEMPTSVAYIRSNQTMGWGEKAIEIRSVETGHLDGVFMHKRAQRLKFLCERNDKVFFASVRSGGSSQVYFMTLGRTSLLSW
Sequence of Dual specificity protein kinase CLK4 (Homo sapiens) (Q9HAZ1 whole entry, looked up): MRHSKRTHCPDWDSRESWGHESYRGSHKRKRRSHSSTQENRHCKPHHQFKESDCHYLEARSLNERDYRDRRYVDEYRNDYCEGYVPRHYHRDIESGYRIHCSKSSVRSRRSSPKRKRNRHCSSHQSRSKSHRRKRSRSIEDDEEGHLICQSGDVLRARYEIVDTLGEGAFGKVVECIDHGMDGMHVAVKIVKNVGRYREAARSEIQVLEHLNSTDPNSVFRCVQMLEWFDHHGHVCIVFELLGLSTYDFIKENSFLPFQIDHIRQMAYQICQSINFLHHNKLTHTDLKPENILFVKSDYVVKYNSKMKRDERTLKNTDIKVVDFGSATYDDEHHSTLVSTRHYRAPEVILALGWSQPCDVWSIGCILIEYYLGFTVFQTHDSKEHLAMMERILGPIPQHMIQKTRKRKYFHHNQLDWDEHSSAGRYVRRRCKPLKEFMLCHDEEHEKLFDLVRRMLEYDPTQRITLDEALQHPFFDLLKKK
Sequence of BDNF/NT-3 growth factors receptor (Homo sapiens) (Q16620 32-822 limits assumed): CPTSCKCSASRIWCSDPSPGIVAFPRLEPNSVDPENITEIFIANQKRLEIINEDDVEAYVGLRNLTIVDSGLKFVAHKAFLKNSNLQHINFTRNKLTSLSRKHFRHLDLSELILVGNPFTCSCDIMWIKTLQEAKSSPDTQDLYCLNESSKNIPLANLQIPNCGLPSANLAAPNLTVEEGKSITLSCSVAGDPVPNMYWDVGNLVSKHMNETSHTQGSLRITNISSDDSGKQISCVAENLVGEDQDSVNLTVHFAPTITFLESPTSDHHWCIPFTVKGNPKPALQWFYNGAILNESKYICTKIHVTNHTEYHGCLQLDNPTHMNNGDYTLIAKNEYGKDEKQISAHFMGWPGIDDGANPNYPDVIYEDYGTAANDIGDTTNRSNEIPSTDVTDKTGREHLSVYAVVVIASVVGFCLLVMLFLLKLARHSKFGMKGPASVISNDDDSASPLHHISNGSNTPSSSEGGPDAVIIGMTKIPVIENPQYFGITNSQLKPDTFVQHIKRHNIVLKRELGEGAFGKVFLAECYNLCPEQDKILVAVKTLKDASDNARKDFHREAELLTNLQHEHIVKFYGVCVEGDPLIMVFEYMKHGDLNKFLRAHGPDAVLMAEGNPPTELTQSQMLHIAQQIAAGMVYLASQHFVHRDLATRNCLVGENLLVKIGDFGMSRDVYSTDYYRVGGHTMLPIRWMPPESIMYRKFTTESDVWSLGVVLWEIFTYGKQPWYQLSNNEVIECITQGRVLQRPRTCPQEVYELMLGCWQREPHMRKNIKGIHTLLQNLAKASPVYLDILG
Sequence of Receptor-type tyrosine-protein kinase FLT3 (Homo sapiens) (P36888 whole entry): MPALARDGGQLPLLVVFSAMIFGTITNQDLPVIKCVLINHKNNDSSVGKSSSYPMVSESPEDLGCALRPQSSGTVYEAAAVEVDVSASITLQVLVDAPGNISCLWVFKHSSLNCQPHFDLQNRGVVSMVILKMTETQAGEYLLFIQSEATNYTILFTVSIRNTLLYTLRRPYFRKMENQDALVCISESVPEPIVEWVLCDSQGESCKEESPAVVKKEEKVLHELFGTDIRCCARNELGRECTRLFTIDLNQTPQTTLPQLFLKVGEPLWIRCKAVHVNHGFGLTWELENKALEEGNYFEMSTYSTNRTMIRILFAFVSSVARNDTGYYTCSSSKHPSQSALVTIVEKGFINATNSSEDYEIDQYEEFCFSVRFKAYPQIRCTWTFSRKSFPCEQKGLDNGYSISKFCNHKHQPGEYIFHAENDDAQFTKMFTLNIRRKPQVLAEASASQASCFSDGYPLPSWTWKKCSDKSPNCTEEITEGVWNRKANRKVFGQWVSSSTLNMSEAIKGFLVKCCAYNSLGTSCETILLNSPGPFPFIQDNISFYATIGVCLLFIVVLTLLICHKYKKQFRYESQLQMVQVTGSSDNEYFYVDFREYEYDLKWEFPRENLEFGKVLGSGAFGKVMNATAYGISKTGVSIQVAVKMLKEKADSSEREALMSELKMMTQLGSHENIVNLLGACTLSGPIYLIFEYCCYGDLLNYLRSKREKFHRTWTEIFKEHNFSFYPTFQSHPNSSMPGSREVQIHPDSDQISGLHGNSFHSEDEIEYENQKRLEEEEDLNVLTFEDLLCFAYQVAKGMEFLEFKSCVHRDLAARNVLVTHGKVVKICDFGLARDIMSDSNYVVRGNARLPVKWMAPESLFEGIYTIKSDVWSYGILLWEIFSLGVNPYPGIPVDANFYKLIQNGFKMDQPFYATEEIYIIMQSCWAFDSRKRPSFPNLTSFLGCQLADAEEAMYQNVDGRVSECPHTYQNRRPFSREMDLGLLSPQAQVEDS
Sequence of NT-3 growth factor receptor (Homo sapiens) (Q16288 32-839 limits assumed): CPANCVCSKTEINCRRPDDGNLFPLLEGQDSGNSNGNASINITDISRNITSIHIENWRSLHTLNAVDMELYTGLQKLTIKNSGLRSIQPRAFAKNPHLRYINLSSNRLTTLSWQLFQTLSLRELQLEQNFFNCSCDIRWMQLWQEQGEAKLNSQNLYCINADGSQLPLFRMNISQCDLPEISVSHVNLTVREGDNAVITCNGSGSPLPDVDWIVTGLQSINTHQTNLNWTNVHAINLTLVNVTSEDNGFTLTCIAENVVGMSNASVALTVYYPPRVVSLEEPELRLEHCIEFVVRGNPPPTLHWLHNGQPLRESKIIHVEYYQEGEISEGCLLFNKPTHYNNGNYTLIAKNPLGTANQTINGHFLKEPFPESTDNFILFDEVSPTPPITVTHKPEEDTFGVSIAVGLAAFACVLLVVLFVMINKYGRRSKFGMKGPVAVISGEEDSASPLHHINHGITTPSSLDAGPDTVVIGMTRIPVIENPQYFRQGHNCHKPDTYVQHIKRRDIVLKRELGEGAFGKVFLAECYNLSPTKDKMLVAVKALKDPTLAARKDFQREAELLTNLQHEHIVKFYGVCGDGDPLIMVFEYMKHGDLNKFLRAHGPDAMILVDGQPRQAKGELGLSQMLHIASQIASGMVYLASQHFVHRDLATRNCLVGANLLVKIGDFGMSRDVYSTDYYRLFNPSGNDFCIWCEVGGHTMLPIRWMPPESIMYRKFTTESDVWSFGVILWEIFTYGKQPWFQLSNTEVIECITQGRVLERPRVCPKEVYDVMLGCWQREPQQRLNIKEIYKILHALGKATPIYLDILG

| Structure (SMILES) | inhibition [1] | inhibition [2] | inhibition [3] | IC50 [4] [µM] | inhibition [5] | inhibition [6] | inhibition [7] |
| --- | --- | --- | --- | --- | --- | --- | --- |
| CCCNc1nc(C)c(-c2nc3ccccc3s2)c(N[C@H]2CC[C@@H](CO)C2)n1 (racemic) | Active | Active | Active | > 20 | Active | Active | Active |
| OC[C@H]1C[C@@H](Nc2nc(NC3CCCCC3)ncc2-c2nc3ccccc3s2)[C@H](O)[C@@H]1O | Active | Active | Active | 3.01 | Active | Active | Active |
| CCc1nc(N)nc(N[C@@H]2C[C@H](CO)[C@@H](O)[C@H]2O)c1-c1nc2ccccc2s1 | Active | Active | Active | 6.85 | Active | Active | Active |
| Cc1cc(Nc2ncc(-c3nc4ccccc4s3)c(N[C@@H]3C[C@H](CO)[C@@H](O)[C@H]3O)n2)cc(C)n1 | Active | Active | Active | 1 | Active | Active | Active |
| OC[C@H]1C[C@@H](Nc2nc(Nc3ccccc3)ncc2-c2nc3ccccc3s2)[C@H](O)[C@@H]1O | Active | Active | Active | 42 | Active | Active | Active |
| Nc1nc(N)c(-c2nc3ccccc3s2)c(N[C@@H]2C[C@H](CO)[C@@H](O)[C@H]2O)n1 | Active | Active | Active | 5.19 | Active | Active | Active |
| N#Cc1nc(N)nc(N[C@@H]2C[C@H](CO)[C@@H](O)[C@H]2O)c1-c1nc2ccccc2s1 | Active | Active | Active | > 20 | Active | Active | Active |
| Cc1nc(N)nc(N[C@@H]2C[C@H](CO)[C@@H](O)[C@H]2O)c1-c1nc2ccccc2s1 | Active | Active | Active | 1.06 | Active | Active | Active |

From ChEMBL document CHEMBL3400143, “Discovery and hit-to-lead optimization of 2,6-diaminopyrimidine inhibitors of interleukin-1 receptor-associated kinase 4” (Bioorg Med Chem Lett, 2015)
